Test results published in US10526585B2 (priority 2015, dated 2020).

Format: biochemical
Conditions: pH 7.5

| Molecule | DON [ppm] |
| --- | --- |
| N[C@@H](CCCCNC1=CC(=O)C(=O)C=C1C[C@H](N)C(=O)O)C(=O)O [LTQ, lysine tyrosylquinone] | 2.04 ppm |
| CN(C)c1ccc2nc3ccc(=[N+](C)C)cc-3sc2c1 [methylene blue] | 6.88 ppm |
| [Cu+2] [Cu^2+] | 2.61 ppm |
| [Ca+2] [Ca^2+] | 1.98 ppm |
| COC1=C(OC)C(=O)C(CC=C(C)C)=C(C)C1=O [coenzyme Q1] | 8.58 ppm |
| topaquinone [TPQ] | 2.41 ppm |
| [Mn+2] [Mn^2+] | 2.57 ppm |
| COS(=O)(=O)[O-].C[n+]1c2ccccc2nc2ccccc21 [PMS, phenazine methosulphate] | 1.95 ppm |
| [Fe+2] [Fe^2+] | 2.17 ppm |
| [Zn+2] [Zn^2+] | 2.46 ppm |
| [Mg+2] [Mg^2+] | 1.90 ppm |
| tryptophan tryptophylquinone [TTQ] | 2.32 ppm |
| O=C(O)c1cc(C(=O)O)c2c(n1)C(=O)C(=O)c1cc(C(=O)O)[nH]c1-2 [PCC, pyrroloquinoline quinone] | 1.94 ppm |
